From US20040158066A1, “Novel pyridylmethylaminopyrimidines” (priority 2001, published 2004)
In brackets after ≈: the same amount, converted by molar mass.

Tests used:
[1] = system: Helicobacter pylori; assay: Inhibition of growth in vitro in liquid culture (NanoOrange fluorescence); type: cell-based; conditions: liquid culture BHI/6% FCS medium, 24 hours incubation at 37° C., microaerobic, 1% DMSO
Excerpt: Determination of the Inhibition of Growth In Vitro in Liquid Culture
The principle of the technique is based on the detection of the multiplication of, for example, Helicobacter pylori in liquid culture using BHI/6% FCS medium. The method ensures linear fluorescence increase in the range from 3×10^6 to 3×10^8 cells.
The bacterial culture was distributed with an initial density of 1-3×10^6 microbes/ml in a 96-well MTP in […]. The test substances in a concentration of […] in a final concentration of 1% DMSO were added to these minicultures. These MTPs were then incubated under microaerobic conditions (Anaerokult, Merck) and with shaking at 37° C. for 24 hours. Following the 24-hour incubation, the minicultures were transferred to filter MTPs and washed twice with isotonic buffer (filtered off with suction, taken up, shaken) and finally were taken up in double-distilled water and shaken, and an aliquot was transferred to a new MTP. This aliquot was admixed with the fluorescent dye NanoOrange (Molecular Probes) in accordance with the manufacturer's instructions. Development of protein detection took place at 90° C. in a pressure-secured sandwich technique. After the plates had cooled, the fluorescence was measured on a plate reader at 549 nm. […] This calculation was made using origin, sigmoidal curve adaptation by means of the ‘logistic’ algorithm.

[2] = system: Helicobacter pylori; assay: Agar dilution test (inhibition of growth in vitro on agar plates); type: cell-based; conditions: 96 h, Columbia agar (Oxoid), growth period of 4 days, read-out: approx. MIC50
Excerpt: Agar Dilution Test (Determination of the Inhibition of Growth In Vitro on Agar Plates)
The compounds of the formula I were investigated for their activity against Helicobacter pylori in accordance with the methodology described by Tomoyuki Iwahi et al. (Antimicrobial Agents and Chemotherapy, 1991, 490-496) using Columbia agar (Oxoid) over a growth period of 4 days.

[3] = system: Helicobacter pylori; assay: Helicobacter pylori eradication rate in vivo (urease test on antrum tissue); conditions: infected gerbils; 50 mg/kg by tube, 3 × daily for 4 days; urease test four weeks after last treatment
Experimental: Determination of the Helicobacter pylori Eradication Rate In Vivo
Gerbils were infected on days 1, 3, and 5 with a suspension containing 10^8-10^9 Helicobacter pylori bacteria per animal. […] Beginning on day 36, the gerbils were treated on four successive days—three times daily at 07.30, 11.30, and 15.00 hours—with a placebo or the test substance, using a tube. Four weeks after the last treatment, the gerbils were sacrificed using CO2. A tissue sample of the antrum was introduced into the urease test solution and incubated at 37° C. for 24 hours. Changes in color of the solution from yellow to violet, which resulted from the increase in pH caused by the formation of NH3 from the urease, were detected. The eradication rate was calculated as the percentage of animals whose stomach tissue sample gave a negative urease test.
Conditions Under which the Animals were Kept:
Groups of 5-10 gerbils per cage (type IV Macrolon cage) were kept at an ambient temperature of 23±2° C. and a relative humidity of 50±10%. They were fed ad libitum with NAFAG feed No. 9439 for rats and mice (NAFAG AG, CH-2900, Gossau, Switzerland) and had free access to mains water during the experiment.
The substances administered are referenced in table C below using numbers which correspond to the numbers of the compounds in the examples.

Structure (SMILES) | melting point [°C] | IC50 [1] [nM] | MIC50 [2] [µg/mL] | Eradication rate [3] [%]
Cc1nc(C)c(Cl)c(NCc2ccc(Oc3ccc4ncc([N+](=O)[O-])n4n3)cn2)n1.Cl.Cl | 280 to 281 | – | – | –
Cc1nc(C)c(Cl)c(NCc2ccc(Oc3ccc4ncc([N+](=O)[O-])n4n3)cn2)n1.O=S(=O)(O)O | 233 to 234 | – | – | –
COc1c(Oc2ccc3ncc([N+](=O)[O-])n3n2)cnc(CNc2nc(C)nc(C)c2Cl)c1C [Compound 1, (5-Chloro-2,6-dimethylpyrimidin-4-yl)[4-methoxy-3-methyl-5-(3-nitroimidazo[1,2-b]pyridazin-6-yloxy)pyridin-2-ylmethyl]amine] | 229.5 to 231.5 | 12 | ~0.1 (≈ 0.212 µM) | –
COc1c(OCCn2c([N+](=O)[O-])cnc2C)cnc(CNc2nc(C)nc(C)c2Cl)c1C [Compound 2, (5-Chloro-2,6-dimethylpyrimidin-4-yl){4-methoxy-3-methyl-5-[2-(2-methyl-5-nitroimidazol-1-yl)ethoxy]pyridin-2-ylmethyl}amine] | 182.5 to 184 | 64 | ~0.1 (≈ 0.216 µM) | –
Cc1nc(C)c(Cl)c(NCc2ccc(Oc3ccc4ncc([N+](=O)[O-])n4n3)cn2)n1 [Compound 3, (5-Chloro-2,6dimethylpyrimidin-4-yl){5-(3-nitroimidazo[1,2-b]pyridazin-6-yloxy)pyridin-2-ylmethyl}amine] | 194 to 198 | 35 | ~0.1 (≈ 0.234 µM) | 100

Second part, led by results:

melting point [°C] | IC50 [1] [nM] | MIC50 [2] [µg/mL] | Structure (SMILES) | Eradication rate [3] [%]
181.5 to 183.5 | 40 | ~0.1 (≈ 0.239 µM) | Cc1nc(C)c(Cl)c(NCc2ccc(OCCn3c([N+](=O)[O-])cnc3C)cn2)n1 [Compound 4, (5-Chloro-2,6-dimethylpyrimidin-4-yl){5-[2-(2-methyl-5-nitroimidazol-1-yl)ethoxy]pyridine-2-ylmethyl}amine] | –
184 to 186 | – | – | Cc1nc(C)c(Cl)c(NCc2ccc(Oc3ccc4ncc([N+](=O)[O-])n4n3)c(Cl)n2)n1 [Compound 7, (5-Chloro-2,6-dimethylpyrimidin-4-yl)-[6-chloro-5-(3-nitroimidazo[1,2-b]pyridazin-6-yloxy)pyridin-2-ylmethyl]amine] | –
206 to 208 | – | – | Cc1nc(C)c(Cl)c(NCc2ccc(OCCn3c([N+](=O)[O-])cnc3C)c(Cl)n2)n1 [Compound 8, (5-Chloro-2,6-dimethylpyrimidin-4-yl)-{6-chloro-5-[2-(2-methyl-5-nitroimidazol-1-yl)ethoxy]pyridin-2-ylmethyl}amine] | –
183 to 184 | – | – | Cc1nc(C)c(Cl)c(CNCc2ccc(Oc3ccc4ncc([N+](=O)[O-])n4n3)cn2)n1 [Compound 9, (5-Chloro-2,6-dimethylpyrimidin-4-yl)methyl-[5-(3-nitroimidazo[1,2-b]pyridazin-6-yloxy)pyridin-2-ylmethyl]amine] | –
